Reference: article PMC10434283, “A Novel Two-Component Bacteriocin, Acidicin P, and Its Key Residues for Inhibiting Listeria monocytogenes by Targeting the Cell Membrane” (Microbiology Spectrum, 2023)

Experiments:
[1] = tested on: L. monocytogenes cell membrane; test: Cytoplasmic membrane permeability assay with propidium iodide; format: cell-based, Listeria monocytogenes; conditions: positive control, 1× MIC
Experimental: Pretreatment of L. monocytogenes cells for the cytoplasmic membrane permeability assay was similar to that for the PMF assay. The cells were resuspended in 1 mL PBS and treated with different concentrations of acidicin P at 30°C for 30 min. The treated cells were stained with 10 μg/mL propidium iodide (PI, Bioss) in the dark for 15 min. Emission spectra of the mixture were recorded at 615 nm upon excitation at 535 nm with a Synergy H4 device (BioTek).

L. monocytogenes = test: Agar well diffusion assay of the mutations; format: cell-based, Listeria monocytogenes; conditions: BHI agar, 10^5 CFU/mL, 40 μL peptide per well, 24 h at 30°C
Excerpt: (§1) The antimicrobial spectrum was investigated using the indicator strains Streptococcus agalactiae 10465, Listeria monocytogenes 1.10753, enterotoxigenic Escherichia coli K88, vancomycin-resistant Enterococcus faecalis V583, Salmonella enterica serovar Typhimurium 14028, methicillin-resistant Staphylococcus aureus, and Bacillus cereus 1.1846. L. monocytogenes 1.10753 was used for growth curve measurement with a microtiter plate assay system. The indicator (at 1 × 10^5 CFU/mL) and the peptide (at 2-fold dilutions) were added to a final volume of 200 μL in each well. The bacterial growth was monitored with Bioscreen C (OyGrowth Curves Ab Ltd.) at 600 nm at 30°C. The MIC was defined as the total amount of Adpα, Adpβ, and acidicin P (the complementary peptides combined with equal amounts) that inhibited the growth of the indicator strain. The agar well diffusion method was used to investigate the antimicrobial activity of the mutations. The L. monocytogenes was inoculated in a brain heart infusion (BHI) agar plate as an indicator at a concentration of 10^5 CFU/mL. The peptide mutants (40 μL) were added to the wells (5 mm), and the plates were incubated for 24 h at 30°C.

[2] = tested on: Listeria monocytogenes 1.10753; test: MIC by microtiter plate growth curve assay; format: cell-based; conditions: for growth rate of L. monocytogenes: peptide individually, at any concentration; for MIC: microtiter growth curve, 1 × 10^5 CFU/mL, 30°C, 600 nm
Excerpt: as §1

Row | Substance | antimicrobial activity compared to the wild type (L. monocytogenes) | also measured
1 | nisin | – | PI fluorescence versus untreated cells [1]: higher fluorescence
2 | RNKMAYAVGKAISRIMRRVR [N7A (Adpα)-S16A//R19A (Adpβ), acidicin P mutant pair: Adpα N7A with Adpβ S16A, R19A] | significantly decreased | –
3 | RNKMAYNVGKAISAIMRRVR [R14A (Adpα)-D12A (Adpβ), acidicin P mutant pair: Adpα R14A with Adpβ D12A] | significantly decreased | –
4 | KKKRGFWYHVGDAVTSFGRGFASAFG [Adpβ, 26-residue mature β peptide of the two-component bacteriocin acidicin P, obtained by solid-phase peptide synthesis] | – | growth rate of L. monocytogenes [2]: not affected; MIC ([2]; ratio α:β 0:1 (Adpβ alone)): / (No antimicrobial activity observed in the range of 1.56 to 200 μg/mL acidicin P)
5 | RNKMAYNVGKAISRIMRAVR [R18A (Adpα)-K2A (Adpβ), acidicin P mutant pair: Adpα R18A with Adpβ K2A] | no detrimental effect | –
6 | ANKMAYNVGKAISRIMRRVR [R1A (Adpα)-D12A (Adpβ), acidicin P mutant pair] | no detrimental effect | –
7 | RNKMIYNVIKAISRIMRRVR [A5I//G9I (Adpα)-S16I//G20I (Adpβ), acidicin P mutant pair: Adpα A5I, G9I with Adpβ S16I, G20I] | significantly decreased | bactericidal zone (L. monocytogenes): no bactericidal zone was observed
8 | RNKMAYAVGKAISAIMRRVR [N7A//R14A (Adpα)-D12A//S16A//R19A (Adpβ), acidicin P mutant pair: Adpα N7A, R14A with Adpβ D12A, S16A, R19A] | significantly decreased | –
9 | RNKMAYNVGKAISRIMRRVR [Adpα, 20-residue mature α peptide of the two-component bacteriocin acidicin P, obtained by solid-phase peptide synthesis] | – | growth rate of L. monocytogenes [2]: not affected; MIC ([2]; ratio α:β 1:0 (Adpα alone)): / (No antimicrobial activity observed in the range of 1.56 to 200 μg/mL acidicin P)
